Reference: PMC12517324, “Hyperagonism of a Vitamin D Receptor Agonist/Histone Deacetylase Inhibitor Hybrid Molecule” (Journal of Medicinal Chemistry, 2025)

What was measured:
HDAC 10 = biological target: T1, HDAC 10 (Homo sapiens, UniProt Q969S8); test: HDAC 10 inhibition (Reaction Biology, 10-dose IC50)
T1 sequence (Q969S8 1-669): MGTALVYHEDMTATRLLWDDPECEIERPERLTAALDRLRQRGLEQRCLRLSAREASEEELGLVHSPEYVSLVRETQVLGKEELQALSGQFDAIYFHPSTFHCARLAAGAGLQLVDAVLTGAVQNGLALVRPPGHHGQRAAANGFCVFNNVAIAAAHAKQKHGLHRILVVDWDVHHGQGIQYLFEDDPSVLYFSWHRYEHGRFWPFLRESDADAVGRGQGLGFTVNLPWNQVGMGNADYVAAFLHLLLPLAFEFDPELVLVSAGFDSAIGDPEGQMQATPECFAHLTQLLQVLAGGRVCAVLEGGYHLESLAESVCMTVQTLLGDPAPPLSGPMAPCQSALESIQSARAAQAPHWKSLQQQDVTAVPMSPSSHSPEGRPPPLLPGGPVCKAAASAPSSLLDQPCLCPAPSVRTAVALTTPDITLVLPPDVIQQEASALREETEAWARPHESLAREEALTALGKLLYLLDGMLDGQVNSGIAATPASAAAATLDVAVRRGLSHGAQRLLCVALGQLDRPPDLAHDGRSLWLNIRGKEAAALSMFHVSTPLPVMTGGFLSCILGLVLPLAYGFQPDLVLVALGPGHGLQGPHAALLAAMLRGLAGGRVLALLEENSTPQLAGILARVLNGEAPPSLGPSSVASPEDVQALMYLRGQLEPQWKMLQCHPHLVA

[1] = tested on: CYP24A1 in SK-MEL-28 cells; test: CYP24A1 induction (RT-qPCR), extended dose–response in SK-MEL-28 cells
[2] = tested on: Cyp24a1 gene in B16–F10 melanoma cells; test: Cyp24a1 gene induction (RT-qPCR) as test of VDR agonism; format: cell-based, mouse; conditions: hybrids 10 μM, 1,25D and SAHA 100 nM, 24 h
VDR = tested on: VDR; design: method as in earlier work; conditions: efficacious and well-tolerated dose; ref (ref); cited from earlier work
[3] = tested on: VDR target genes in B16-F10 cells; test: RT-qPCR of selected VDR target genes (RNaseq validation); format: cell-based, mouse; conditions: B16-F10, 24 h, compared with other treatments
From the text: The enhanced response of B16–F10 cells to AC-340 likely reflects the VDR hyperagonist activity observed in Cyp24a1 induction assay (Figure A). […] In 49 of 50 cases, AC-340 superinduced their expression, often several fold (Figure C), consistent with AC-340 being a broad hyperagonist of 1,25D-induced genes.
RNAseq data validation by RT-qPCR of selected VDR target genes in B16-F10
Fig. S4. Validation of the RNAseq data by RT-qPCR.

B16–F10 cells = test: RNaseq gene expression profiling; format: cell-based, mouse; conditions: 24 h
Procedure: AC-340 superinduced CYP24A1 expression in all cell lines tested, and ZG-126 appeared to be a hyperagonist in SK-MEL-28 cells. […] AC-340 treatment produced 3 times more differentially expressed genes (DEGs) than AM-193, with ZG-126 producing an intermediate number (Figure A). […] The varying effects of each treatment on the numbers of regulated genes and the fold changes observed are reflected in plots of log-fold changes and volcano plots (Figure S3B).
A quality control was performed before sequencing in paired-end at 50 M reads by Illumina NovaSeq 6000 S4 PE100. After sequencing, the FASTQ files were sent to us and all downstream analysis were performed on Galaxy (Galaxy (usegalaxy.org)). First, trimmomatic tool was used to remove the adapters from the reads. Then, using the alignment tool, HISAT2, the reads were mapped to the mouse genome. In the next step, the counted reads were annotated and finally the list of differentially expressed genes (DEGs) for each treatment was obtained using the preinstalled R package called Limma.

[4] = tested on: VDRE in the mouse Spp1 gene, B16–F10 cells; test: ChIP-qPCR at the Spp1 VDRE; format: cell-based
From the text: To test this, we performed ChIP assays in B16–F10 cells, analyzing ligand-induced VDR and CBP (Creb binding protein) coactivator recruitment to the well-characterized consensus vitamin D receptor element (VDRE) in the mouse Spp1 gene (Figure A), which is superinduced by AC-340 (Figures C and A). CBP was chosen because it is widely expressed, and previous studies have shown that it is recruited to Cyp24a1 VDREs. […] In contrast, AC-340 recruited almost 3-fold more CBP under the same conditions (Figure C). CBP is a component of a large coactivator assembly recruited by VDR and required for chromatin remodeling due to its H3K27 acetyltransferase activity. − Since we previously observed a substantially higher level of H3K27 acetylation in AC-340-treated B16–F10 cells (Figure C,D), we intend to assess H3K27 acetylation at the Spp1 VDRE.
Cells were then fixed by adding formaldehyde directly to the culture medium to a final concentration of 1% and incubated for 15 min at RT. To quench the fixation, glycine was added to the medium at a final concentration of 125 mM. […] Quantification of immunoprecipitated materials was performed by qPCR and the enrichment of the target gene VDRE in each condition was normalized to the percentage input.

## Cn1cc(CNCC2CCN(c3ncc(C(=O)NO)cn3)CC2)c2ccccc21 [Quisinostat]
HDAC 10
  IC50: 4.52 nM

## CCC(CC)(c1ccc(C(=O)NCCCCC(=O)NO)cc1)c1ccc(OCC(O)C(C)(C)C)c(C)n1 (centres unmarked) [ZG-126]
[1]; SK-MEL-28 cells, 10 μM
  CYP24A1 induction (VDR hyperagonism): displayed hyperagonism
[2]
  Cyp24a1 gene expression induction: more efficacious than 1,25D (and AM-193)
VDR
  VDR agonist activity in vivo: displays VDR agonist activity in vivo
[3]
  Prelp gene induction: most efficacious inducer
  Tgm2 gene induction: most efficacious inducer
B16–F10 cells; 10 μM
  logFC Btn1a1: 8.367
  logFC Cyp24a1: 8.537
  logFC Elfn1: 7.8172
  logFC Nccrp1: 7.976
  logFC Tnni1: 9.358

## C=C1/C(=C\C=C2/CCC[C@]3(C)[C@@H]([C@H](C)CCCC(C)(C)O)CC[C@@H]23)C[C@@H](O)C[C@@H]1O [1,25D, 1α,25-dihydroxyvitamin D]
[1]; SK-MEL-28 cells, 1,25D up to 1 mM
  CYP24A1 induction on extending the dose range: failed to enhance the induction of CYP24A1
B16–F10 cells; 100 nM
  logFC 4931406C07Rik: 0.647
  logFC Abcd2: 2.727
  logFC Ace: 2.102
  logFC Adamts14: 1.691
  logFC Adamtsl5: 0.7958
  logFC Adssl1: 0.8651
  logFC Aqp1: 3.095
  logFC Ass1: 1.083
  logFC Atoh8: 1.866
  logFC C3: 2.444
  logFC Cebpd: 0.9202
  logFC Cib2: 0.656
  logFC Crabp2: 1.516
  logFC Cyp24a1: 6.454
  logFC Dagla: 0.6621
  logFC Ddo: 1.132
  logFC Dhrs3: 1.185
  logFC Dmpk: 1.6
  logFC Efcab6: 1.404
  logFC Efhd1: 3.1104
  logFC Elfn1: 4.174
  logFC Enpp1: 1.029
  logFC Enpp3: 1.066
  logFC Fam83f: 1.009
  logFC Fam178b: 0.6417
  logFC Gadd45a: 0.6305
  logFC Gdpd5: 0.8468
  logFC Gm5424: 1.087
  logFC Grb14: 4.512
  logFC Hcn2: 2.951
  logFC Hes6: 0.8133
  logFC Hoga1: 0.7079
  logFC Hoxb9: 0.9861
  logFC Inmt: 4.174
  logFC Itgal: 2.511
  logFC Lgr6: 1.733
  logFC Lrtm2: 3.553
  logFC Mal: 1.086
  logFC Matn2: 1.519
  logFC Mmp28: 2.973
  logFC Myl9: 1.815
  logFC Neu3: 0.8227
  logFC Nptx1: 1.67
  logFC Obscn: 1.291
  logFC Pdlim2: 0.7794
  logFC Prag1: 0.7325
  logFC Prelp: 4.153
  logFC Ptges: 2.985
  logFC Rab7b: 1.864
  logFC Rac2: 2.0813
  logFC Rom1: 0.7288
  logFC Rtn2: 0.9272
  logFC Scamp1: 0.6536
  logFC Serpinb9b: 0.64
  logFC Sh3bgr: 1.253
  logFC Shpk: 0.8108
  logFC Sox8: 3.592
  logFC Spp1: 3.391
  logFC Srcin1: 2.803
  logFC Tgm2: 2.227
  logFC Tnni1: 6.667
  logFC Ttc39c: 1.046
  logFC Vdr: 3.982
  logFC Wnt10a: 1.853
[4]
  H3K27 acetylation at the Spp1 VDRE: ineffective
